Source: patent US9877940B2, “Anthraquinone compounds and their uses” (DUNDALK INSTITUTE OF TECHNOLOGY, priority 2010, dated 2018)
One block for each molecule: values may come before it.

Biological target: T1, BK channels (Oryctolagus cuniculus, UniProt Q9BG98)
T1 construct: wherein the native BK channels were more sensitive to Ca^2+; from tissue
Test: Single channel recordings, inside-out patch clamp, voltage ramps, isolated smooth muscle cells of the rabbit bladder
Format: cell-based
Conditions: for effect on BK channel activity, in words (SAR discussion based on V1/2 data): inside out patches on rabbit smooth muscle cells
Procedure: All experiments were approved by the Dundalk Institute of Technology Animal Care and Use Committee. […] The urinary bladder and most proximal 1.5 cm of the urethra was removed and placed in Krebs solution. Strips of bladder tissue, 0.5 cm in width were dissected, cut into 1 mm^3 pieces and stored in Ca^2+-free Hanks' solution for 30 min prior to cell dispersal. Tissue pieces were incubated in dispersal medium containing (per 5 ml) of Ca^2+-free Hanks' solution: 15 mg collagenase (Sigma type 1A), 1 mg protease (Sigma type XXIV), 10 mg bovine serum albumin (Sigma) and 10 mg trypsin inhibitor (Sigma) for 10-15 min at 37° C. Tissue was then transferred to Ca^2+-free Hanks' solution and stirred for a further 10-15 min to release single smooth muscle cells. These were plated in Petri dishes containing 100 μM Ca^2+ Hanks' solution and stored at 4° C. for use within 8 h. During experiments, the dish containing the cells was continuously perfused with Hanks' solution at 36±1° C. Additionally the cell under study was continuously superfused by means of a custom built close delivery system with a pipette of tip diameter 200 μm placed approximately 300 μm from the cell. The high K^+ solution in the close delivery system could be switched to a drug-containing solution with a dead space time of less than 5 s.
For whole cell recordings pipettes were pulled from borosilicate glass capillary tubing (1.5 mm outer diameter, 1.17 mm inner diameter; Clark Medical Instruments) to a tip of diameter approximately 1-1.5 μm and resistance of 2-4 Mohms. For single channel recordings, pipettes were pulled from borosilicate glass capillary tubing (1.5 mm outer diameter, 0.8 mm inner diameter; Clark Medical Instruments) and fire polished before use. Voltage clamp commands were delivered via an Axopatch 1D or Axon 200B patch clamp amplifiers (Axon Instruments) and membrane currents were recorded by a 12 bit AD/DA converter (Axodata 1200 or Labmaster, Scientific Solutions) interfaced to an Intel computer running pCLAMP software.
All values in (mM): KCl, 140. Glucose, 10, EGTA 1 and HEPES, 10. For free Ca^2+ greater than 300 nM: All values in (mM): KCl, 140. Glucose, 10, H-EDTA 1 and HEPES, 10. The same solution composition is used in the bath as in the patch pipette for these experiments except that the pipette solution contained 100 nM Ca^2+.
In single channel experiments voltage commands were applied using pClamp ramped potentials. This allowed more efficient measurement of slope conductance and channel activation than conventional step depolarisations. Activation curves were calculated by averaging current responses to 15 potential ramps and dividing each data point of the averaged current by the single channel amplitude at that holding potential, after leakage current correction. […] This analysis provides a continuous recording of the number of open channels multiplied by the open probability (NPo) over the entire voltage range. To obtain values for the steepness of the voltage-dependent activation and half-maximal activation voltage, activation curves were fitted with Boltzman functions of the form: NPo=n/{1+exp[−K(V−V1/2)]} where N is the number of channels in the patch, n is the maximal NPo level, K^−1 is the steepness of the voltage-dependent activation (change in potential necessary to cause an e-fold increase in activation) and V1/2 is the voltage at which there is half-maximal activation. Again, all of the experiments were carried out at 36±1° C.
The patches were held at a potential of −100 mV and voltage ramps were then applied from −100 mV up to +100 mV over 2 s.
Patches were held at −100 mV and ramped through to +100 mV and each sweep was repeated 15 times. The same protocol was repeated after the patch was incubated in 1 μM Ca^2+.

[1] = Table 2, 10 μM compound, inside-out patch
[2] = Table 1, 10 μM compound, inside-out patch, V1/2 control vs drug

T1 sequence (Q9BG98 whole entry): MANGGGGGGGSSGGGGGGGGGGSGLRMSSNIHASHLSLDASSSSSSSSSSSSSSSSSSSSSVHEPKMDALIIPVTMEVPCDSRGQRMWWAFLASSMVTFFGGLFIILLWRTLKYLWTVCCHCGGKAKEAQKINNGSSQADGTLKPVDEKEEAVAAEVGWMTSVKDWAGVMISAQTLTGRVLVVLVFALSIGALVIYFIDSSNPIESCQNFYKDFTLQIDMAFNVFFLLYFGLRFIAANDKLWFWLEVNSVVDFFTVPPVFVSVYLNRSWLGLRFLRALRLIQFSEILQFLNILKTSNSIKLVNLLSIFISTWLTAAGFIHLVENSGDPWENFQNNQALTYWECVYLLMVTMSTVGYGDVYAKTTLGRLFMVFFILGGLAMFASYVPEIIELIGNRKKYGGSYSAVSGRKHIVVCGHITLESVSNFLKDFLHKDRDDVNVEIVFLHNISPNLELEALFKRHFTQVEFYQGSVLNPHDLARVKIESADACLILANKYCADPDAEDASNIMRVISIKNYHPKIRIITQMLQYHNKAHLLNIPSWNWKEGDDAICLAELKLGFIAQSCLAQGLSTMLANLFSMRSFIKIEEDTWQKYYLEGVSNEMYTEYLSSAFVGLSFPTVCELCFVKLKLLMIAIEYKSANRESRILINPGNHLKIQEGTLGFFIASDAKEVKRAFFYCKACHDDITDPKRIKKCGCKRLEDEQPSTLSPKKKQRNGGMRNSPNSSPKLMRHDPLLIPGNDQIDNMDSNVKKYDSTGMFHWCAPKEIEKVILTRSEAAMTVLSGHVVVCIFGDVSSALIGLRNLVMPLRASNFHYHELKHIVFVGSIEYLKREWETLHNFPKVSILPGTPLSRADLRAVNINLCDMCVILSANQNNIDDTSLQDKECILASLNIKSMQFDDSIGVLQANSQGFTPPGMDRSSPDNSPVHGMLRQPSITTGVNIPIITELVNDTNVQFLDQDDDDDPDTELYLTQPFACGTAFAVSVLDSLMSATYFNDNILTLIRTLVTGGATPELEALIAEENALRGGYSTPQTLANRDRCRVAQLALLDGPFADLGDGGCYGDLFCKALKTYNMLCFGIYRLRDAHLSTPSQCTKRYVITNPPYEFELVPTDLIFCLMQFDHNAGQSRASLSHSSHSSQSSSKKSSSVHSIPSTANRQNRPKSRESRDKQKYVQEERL

Structure (SMILES): Nc1c(S(=O)(=O)[O-])cc(Nc2ccc3c(c2)CCC3)c2c1C(=O)c1ccccc1C2=O.[Na+] [SR-5-64, sodium 1-amino-4-((2,3-dihydro-1H-inden-5-yl)amino)-9,10-dioxo-9,10-dihydroanthracene-2-sulfonate]
- ΔV1/2 (mV) in 100 nm Ca^2+ [1]: −87.6 mV

Structure (SMILES): Nc1c(S(=O)(=O)[O-])cc(Nc2cccc(O)c2)c2c1C(=O)c1ccccc1C2=O.[Na+] [SR-5-53, sodium 1-amino-4-((3-hydroxyphenyl)amino)-9,10-dioxo-9,10-dihydroanthracene-2-sulfonate]
- ΔV1/2 (mV) in 100 nm Ca^2+ [1]: −44.1 mV

Structure (SMILES): Nc1c(S(=O)(=O)[O-])cc(Nc2cc(F)cc(F)c2)c2c1C(=O)c1ccccc1C2=O.[Na+] [SR-5-14, sodium 1-amino-4-(3,5-difluorophenylamino)-9,10-dioxo-9,10-dihydroanthracene-2-sulfonate]
- ΔV1/2 (mV) in 100 nm Ca^2+ [2]: −24.2 mV

Structure (SMILES): CCc1ccc(Nc2cc(S(=O)(=O)[O-])c(N)c3c2C(=O)c2ccccc2C3=O)cc1.[Na+] [SR-5-97, sodium 1-amino-4-((4-ethylphenyl)amino)-9,10-dioxo-9,10-dihydroanthracene-2-sulfonate]
- ΔV1/2 (mV) in 100 nm Ca^2+ [1]: −78.5 mV
- effect on BK channel activity, in words (SAR discussion based on V1/2 data): BK channel openers

Structure (SMILES): CC(C)c1cccc(Nc2cc(S(=O)(=O)[O-])c(N)c3c2C(=O)c2ccccc2C3=O)c1.[Na+] [SR-5-63, sodium 1-amino-4-((3-isopropylphenyl)amino)-9,10-dioxo-9,10-dihydroanthracene-2-sulfonate]
- ΔV1/2 (mV) in 100 nm Ca^2+ [1]: −113.1 mV
- effect on BK channel activity, in words (SAR discussion based on V1/2 data): BK channel agonists

Structure (SMILES): CC(C)c1ccccc1Nc1cc(S(=O)(=O)[O-])c(N)c2c1C(=O)c1ccccc1C2=O.[Na+] [SR-5-98, sodium 1-amino-4((2-isopropylphenyl)amino)-9,10-dioxo-9,10-dihydroanthracene-2-sulfonate]
- ΔV1/2 (mV) in 100 nm Ca^2+ [1]: −120.0 mV
- effect on BK channel activity, in words (SAR discussion based on V1/2 data): BK channel agonists

Structure (SMILES): COc1ccccc1Nc1cc(S(=O)(=O)[O-])c(N)c2c1C(=O)c1ccccc1C2=O.[Na+] [SR-5-12, sodium 1-amino-4-(2-methoxyphenylamino)-9,10-dioxo-9,10-dihydroanthracene-2-sulfonate]
- ΔV1/2 (mV) in 100 nm Ca^2+ [2]: −54.1 mV

Structure (SMILES): Nc1c(S(=O)(=O)[O-])cc(Nc2ccc3ccccc3c2)c2c1C(=O)c1ccccc1C2=O.[Na+] [SR-5-72, sodium 1-amino-4-((naphthalen-2-yl)amino)-9,10-dioxo-9,10-dihydroanthracene-2-sulfonate]
- shifted the V1/2 by (1 μM): 93 mV
- ΔV1/2 (mV) in 100 nm Ca^2+ [1]: −103.8 mV
- effect on BK channel activity, in words (SAR discussion based on V1/2 data): dramatic increase in the activity

Structure (SMILES): Nc1c(S(=O)(=O)[O-])cc(NC2CCCC2)c2c1C(=O)c1ccccc1C2=O.[Na+] [SR-5-8, sodium 1-amino-4-(cyclopentylamino)-9,10-dioxo-9,10-dihydroanthracene-2-sulfonate]
- ΔV1/2 (mV) in 100 nm Ca^2+ [2]: −24.24 mV

- ΔV1/2 (mV) in 100 nm Ca^2+ [1]: −98.8 mV
- effect on BK channel activity, in words (SAR discussion based on V1/2 data): activity was not altered
Structure (SMILES): Nc1c(C(=O)O)cc(Nc2cccc(C(F)(F)F)c2)c2c1C(=O)c1ccccc1C2=O [SR-5-88, 1-amino-9,10-dioxo-4-((3-(trifluoromethyl)phenyl)amino)-9,10-dihydroanthracene-2-carboxylic acid]

Structure (SMILES): Nc1c(S(=O)(=O)O)cc(Br)c2c1C(=O)c1ccccc1C2=O [Bromaminic acid, reference compound]
- effect on BK channel activity, in words (SAR discussion based on V1/2 data): inhibitory effect

Structure (SMILES): CCc1cccc(Nc2cc(S(=O)(=O)[O-])c(N)c3c2C(=O)c2ccccc2C3=O)c1.[Na+] [SR-5-31, sodium 1-amino-4-(3-ethylphenylamino)-9,10-dioxo-9,10-dihydroanthracene-2-sulfonate]
- ΔV1/2 (mV) in 100 nm Ca^2+ [2]: −87.1 mV

Structure (SMILES): Nc1c(S(=O)(=O)[O-])cc(Nc2cccc3c2CCCC3)c2c1C(=O)c1ccccc1C2=O.[Na+] [SR-5-65, sodium 1-amino-9,10-dioxo-4-((5,6,7,8-tetrahydronaphthalen-1-yl)amino)-9,10-dihydroanthracene-2-sulfonate]
- ΔV1/2 (mV) in 100 nm Ca^2+ [1]: −116.2 mV
- effect on BK channel activity, in words (SAR discussion based on V1/2 data): potent BK channel activator

Structure (SMILES): Nc1c(S(=O)(=O)[O-])cc(NC2CCCCCC2)c2c1C(=O)c1ccccc1C2=O.[Na+] [SR-5-32, sodium 1-amino-4-(cycloheptylamino)-9,10-dioxo-9,10-dihydroanthracene-2-sulfonate]
- ΔV1/2 (mV) in 100 nm Ca^2+ [2]: −61.1 mV

Structure (SMILES): Nc1c(S(=O)(=O)[O-])cc(Nc2ccc3c(c2)CCCC3)c2c1C(=O)c1ccccc1C2=O.[Na+] [SR-5-69, sodium 1-amino-9,10-dioxo-4-((5,6,7,8-tetrahydronaphthalen-2-yl)amino)-9,10-dihydroanthracene-2-sulfonate]
- shift in the activation V1/2 (30 nM, example patch of FIG. 8A): very small shift
- shifted the V1/2 by (1 μM): 110 mV
- V1/2 reached in the presence of the drug (1 μM, example patch of FIG. 8A): approximately +5 mV
- shift of the V1/2 (1 μM, example patch of FIG. 8A, hyperpolarising direction): > −100 mV
- ΔV1/2 (mV) in 100 nm Ca^2+ (Table 2, 1 μM compound, inside-out patch): −101.6 mV
- dose dependence of effects on open probability and ΔV1/2 for BK channels (increasing concentrations, inside-out patch): dose-dependent
- effect on BK channel activity, in words (SAR discussion based on V1/2 data): dramatic increase in the activity
- EC50 (n=4-6 patches containing BK channels, read-out: mean EC50 (Langmuir fit of mean V1/2 against concentration)): 95 nM

Structure (SMILES): Nc1c(S(=O)(=O)[O-])cc(Nc2cccc3ccccc23)c2c1C(=O)c1ccccc1C2=O.[Na+] [SR-5-66]
- ΔV1/2 (mV) in 100 nm Ca^2+ [1]: −53.4 mV
- effect on BK channel activity, in words (SAR discussion based on V1/2 data): potency was dropped substantially

Structure (SMILES): Nc1c(S(=O)(=O)[O-])cc(Nc2cccc(Cc3ccccc3)c2)c2c1C(=O)c1ccccc1C2=O.[Na+] [SR-5-68, sodium 1-amino-4-((3-benzylphenyl)amino)-9,10-dioxo-9,10-dihydroanthracene-2-sulfonate]
- ΔV1/2 (mV) in 100 nm Ca^2+ [1]: −120.0 mV
- effect on BK channel activity, in words (SAR discussion based on V1/2 data): BK channel agonists

- ΔV1/2 (mV) in 100 nm Ca^2+ [2]: −54.37 mV
Structure (SMILES): Nc1c(S(=O)(=O)[O-])cc(NC2CCCCC2)c2c1C(=O)c1ccccc1C2=O.[Na+] [Acid Blue 62, sodium 1-amino-4-(cyclohexylamino)-9,10-dioxo-9,10-dihydroanthracene-2-sulfonate]

Structure (SMILES): CCc1ccccc1Nc1cc(S(=O)(=O)[O-])c(N)c2c1C(=O)c1ccccc1C2=O.[Na+] [SR-5-96, sodium 1-amino-4-((2-ethylphenyl)amino)-9,10-dioxo-9,10-dihydroanthracene-2-sulfonate]
- ΔV1/2 (mV) in 100 nm Ca^2+ [1]: −84.8 mV
- effect on BK channel activity, in words (SAR discussion based on V1/2 data): BK channel agonists

Structure (SMILES): Nc1c(S(=O)(=O)[O-])cc(Nc2cccc(-c3ccccc3)c2)c2c1C(=O)c1ccccc1C2=O.[Na+] [SR-5-94, sodium 4-([1,1′-biphenyl]-3-ylamino)-1-amino-9,10-dioxo-9,10-dihydroanthracene-2-sulfonate]
- ΔV1/2 (mV) in 100 nm Ca^2+ [1]: −60.0 mV

Structure (SMILES): Nc1c(S(=O)(=O)[O-])cc(Nc2ccc(F)c(C(F)(F)F)c2)c2c1C(=O)c1ccccc1C2=O.[Na+] [SR-5-28, sodium 1-amino-4-(4-fluoro-3-(trifluoromethyl)phenylamino)-9,10-dioxo-9,10-dihydroanthracene-2-sulfonate]
- ΔV1/2 (mV) in 100 nm Ca^2+ [2]: −83.2 mV

Structure (SMILES): CC(C)c1ccc(Nc2cc(S(=O)(=O)[O-])c(N)c3c2C(=O)c2ccccc2C3=O)cc1.[Na+] [SR-5-99, sodium 1-amino-4-((4-isopropylphenyl)amino)-9,10-dioxo-9,10-dihydroanthracene-2-sulfonate]
- ΔV1/2 (mV) in 100 nm Ca^2+ [1]: −83.4 mV
- effect on BK channel activity, in words (SAR discussion based on V1/2 data): BK channel openers
